# Positions of bridges follow the written chain, without caps; N, C: chain ends. Non-standard residues stand in square brackets, D forms with d. Residues, ends and D or L forms follow the SMILES beside them. Groups on a side chain read outwards from the residue. *: point of attachment. C18 diacid = O=C(O)CCCCCCCCCCCCCCCCC(=O)*; Dip = N[C@H](C(=O)O)C(c1ccccc1)c1ccccc1; Palmitoyl = CCCCCCCCCCCCCCCC(=O)*; NMeF = CN[C@@H](Cc1ccccc1)C(=O)O; β3hF = N[C@H](CC(=O)O)Cc1ccccc1; NMeK = CN[C@@H](CCCCN)C(=O)O; Pen = CC(C)(S)[C@H](N)C(=O)O; dNMeK = CN[C@H](CCCCN)C(=O)O; Isovaleryl = CC(C)CC(=O)*; NMeC = CN[C@@H](CS)C(=O)O; hCys = N[C@@H](CCS)C(=O)O; Dap = NC[C@H](N)C(=O)O; AEEA = NCCOCCOCC(=O)O; Ahx = NCCCCCC(=O)O
# Target: T1, ferroportin (Homo sapiens, UniProt Q9NP59)
# T1 sequence (Q9NP59 1-571): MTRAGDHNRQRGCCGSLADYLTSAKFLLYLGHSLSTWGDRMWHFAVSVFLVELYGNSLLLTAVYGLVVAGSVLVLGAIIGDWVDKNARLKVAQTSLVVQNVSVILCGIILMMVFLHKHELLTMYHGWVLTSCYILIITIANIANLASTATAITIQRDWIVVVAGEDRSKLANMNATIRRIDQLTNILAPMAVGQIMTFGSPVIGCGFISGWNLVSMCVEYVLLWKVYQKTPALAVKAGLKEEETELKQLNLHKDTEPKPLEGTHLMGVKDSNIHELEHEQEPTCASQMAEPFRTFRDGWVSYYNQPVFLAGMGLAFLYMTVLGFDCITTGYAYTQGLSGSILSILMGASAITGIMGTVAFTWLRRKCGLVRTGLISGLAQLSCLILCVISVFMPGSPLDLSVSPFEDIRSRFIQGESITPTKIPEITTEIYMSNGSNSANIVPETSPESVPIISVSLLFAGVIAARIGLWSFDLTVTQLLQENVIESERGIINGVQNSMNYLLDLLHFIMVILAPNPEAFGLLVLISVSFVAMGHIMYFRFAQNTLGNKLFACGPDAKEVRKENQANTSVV
# Test: FPN activity assay: ferroportin-GFP internalization/degradation in HEK293 cells
# Type: cell-based
# Design: expressed in transfected cells
# Settings: Table 6D; ferroportin-GFP internalization/degradation, at least 18 hours incubation; read-out: FPN IC50
# Protocol: Following internalization, the ferroporin protein is degraded.
# A retro inverse peptide is a peptide with a reversed sequence in all D amino acids. An example is that Hy-Glu-Thr-His-NH2 becomes Hy-DHis-DThr-DGlu-NH2. The EC50 of these reference compounds for ferroportin internalization/degradation was determined according to the FPN activity assay described above. These peptides served as control standards.
row,DC50 [nM],Structure (SMILES)
1,100 to 500,CCCCCCCCCCCCCCCC(=O)NCC[N+](C)(C)CC(=O)NCCCC[C@H](NC(=O)[C@@H]1CSSC[C@H](NC(=O)[C@H](CCC(=O)O)NC(=O)CC(C)C)C(=O)N[C@@H](Cc2c[nH]cn2)C(=O)N[C@@H](C(c2ccccc2)c2ccccc2)C(=O)N1)C(=O)NCCCCC [compound 124]
2,10 to 100,CCCCCCCCCCCCCCCC(=O)NCCCCCC(=O)NCCCC[C@H](NC(=O)C[C@H](Cc1ccccc1)NC(=O)[C@@H](CCCCN)NC(=O)[C@@H](NC(=O)[C@@H]1CSSC[C@H](NC(=O)[C@H](CCC(=O)O)NC(=O)CC(C)C)C(=O)N[C@@H](Cc2c[nH]cn2)C(=O)N[C@@H](C(c2ccccc2)c2ccccc2)C(=O)N2CCC[C@H]2C(=O)N1)[C@@H](C)CC)C(=O)N[C@H](CCCCN)C(N)=O [compound 134] (Isovaleryl-ECH[Dip]PCI[dK][β3hF]K([Ahx-Palmitoyl])[dK]-NH2; disulfide 2-6)

# Same assay, conditions: ferroportin-GFP HEK293 cells, at least 18 hours; read-out: FPN IC50
row,DC50 [nM],Structure (SMILES)
1,> 500,CCCCCCCCCCCCCCCC(=O)NCCCCCC(=O)NCCCC[C@H](NC(=O)[C@@H](NC(=O)[C@@H]1CCSSCC[C@H](N)C(=O)N[C@@H](C(C)C)C(=O)N[C@@H](CCC(=O)O)C(=O)N[C@@H]([C@@H](C)O)C(=O)N[C@@H](Cc2c[nH]cn2)C(=O)N[C@@H](C(c2ccccc2)c2ccccc2)C(=O)N2CCC[C@H]2C(=O)N1)[C@@H](C)CC)C(=O)N[C@H](CC(N)=O)Cc1ccccc1 [Compd 16] (H-[hCys]VETH[Dip]P[hCys]IK([Ahx-Palmitoyl])[β3hF]-NH2; disulfide 1-8)
2,100 to 500,CC[C@H](C)[C@H](NC(=O)[C@@H]1CSSC[C@H](NC(=O)[C@H](Cc2c[nH]cn2)NC(=O)[C@@H](NC(=O)[C@H](CCC(=O)O)NC(=O)CC(C)C)[C@@H](C)O)C(=O)N2CCC[C@H]2C(=O)N1)C(=O)N[C@H](CCCCN)C(=O)N[C@H](CC(=O)N[C@@H](CCCCNC(=O)COCCOCCNC(=O)COCCOCCNC(=O)CCCCCNC(=O)CCCCCCCCCCCCCCCCC(=O)O)C(=O)N[C@H](CCCCN)C(N)=O)Cc1ccccc1 [Compd 24] (Isovaleryl-ETHCPCI[dK][β3hF]K([AEEA-AEEA-Ahx-C18 diacid])[dK]-NH2; disulfide 4-6)
3,100 to 500,CCCCCCCCCCCCCCCC(=O)NCCCCCC(=O)NCCCC[C@H](NC(=O)[C@@H](NC(=O)[C@@H]1CSSC[C@H](NC(C)=O)C(=O)N[C@@H](CCC(=O)O)C(=O)N[C@@H]([C@@H](C)O)C(=O)N[C@@H](Cc2c[nH]cn2)C(=O)N[C@@H](C(c2ccccc2)c2ccccc2)C(=O)N2CCC[C@H]2C(=O)N1)[C@@H](C)CC)C(=O)N[C@H](CC(N)=O)Cc1ccccc1 [Compd 9] (Ac-CETH[Dip]PCIK([Ahx-Palmitoyl])[β3hF]-NH2; disulfide 1-7)
4,10 to 100,CCCCCCCCCCCCCCCC(=O)NCCCCCC(=O)NCCCC[C@H](NC(=O)C[C@H](Cc1ccccc1)NC(=O)[C@H]1CSSC[C@@H](NC(=O)CC(C)C)C(=O)N[C@@H]([C@@H](C)O)C(=O)N[C@@H](Cc2c[nH]cn2)C(=O)N[C@@H](C(c2ccccc2)c2ccccc2)C(=O)N2CCC[C@H]2C(=O)N[C@@H](C)C(=O)N[C@@H]([C@@H](C)CC)C(=O)N1)C(=O)N[C@H](CCCCN)C(N)=O [compound 105] (Isovaleryl-[dC]TH[Dip]PAI[dC][β3hF]K([Ahx-Palmitoyl])[dK]-NH2; disulfide 1-8)
5,10 to 100,CCCCCCCCCCCCCCCC(=O)NCCCCCC(=O)NCCCC[C@H](NC(=O)C[C@H](Cc1ccccc1)NC(=O)[C@H]1NC(=O)[C@H]([C@@H](C)CC)NC(=O)[C@H](C)NC(=O)[C@@H]2CCCN2C(=O)[C@H](C(c2ccccc2)c2ccccc2)NC(=O)[C@H](Cc2c[nH]cn2)NC(=O)[C@H]([C@@H](C)O)NC(=O)[C@@H](NC(=O)CC(C)C)CCSSC1(C)C)C(=O)N[C@H](CCCCN)C(N)=O [compound 109] (Isovaleryl-[hCys]TH[Dip]PAI[Pen][β3hF]K([Ahx-Palmitoyl])[dK]-NH2; disulfide 1-8)
6,100 to 500,CCCCCCCCCCCCCCCC(=O)NCCCCCC(=O)NCCCC[C@H](NC(=O)C[C@H](Cc1ccccc1)NC(=O)[C@H]1CSSC[C@H](NC(=O)CC(C)C)C(=O)N[C@@H]([C@@H](C)O)C(=O)N[C@@H](Cc2c[nH]cn2)C(=O)N[C@@H](C(c2ccccc2)c2ccccc2)C(=O)N2CCC[C@H]2C(=O)N[C@@H](C)C(=O)N[C@@H]([C@@H](C)CC)C(=O)N1)C(=O)N[C@H](CCCCN)C(N)=O [compound 106] (Isovaleryl-CTH[Dip]PAI[dC][β3hF]K([Ahx-Palmitoyl])[dK]-NH2; disulfide 1-8)
7,100 to 500,CCCCCCCCCCCCCCCC(=O)NCCCCCC(=O)NCCCC[C@H](NC(=O)[C@@H](NC(=O)[C@@H]1CSSC[C@H](NC(=O)CC(C)C)C(=O)N[C@@H](CCC(=O)O)C(=O)N[C@@H]([C@@H](C)O)C(=O)N[C@@H](Cc2c[nH]cn2)C(=O)N[C@@H](C(c2ccccc2)c2ccccc2)C(=O)N2CCC[C@H]2C(=O)N1)[C@@H](C)CC)C(=O)N[C@H](CC(N)=O)Cc1ccccc1 [Compd 10] (Isovaleryl-CETH[Dip]PCIK([Ahx-Palmitoyl])[β3hF]-NH2; disulfide 1-7)
8,10 to 100,CCCCCCCCCCCCCCCC(=O)NCCCCCC(=O)NCCCC[C@H](NC(=O)C[C@H](Cc1ccccc1)NC(=O)[C@@H](CCCCN)NC(=O)[C@@H](NC(=O)[C@@H]1CSSC[C@H](NC(=O)[C@H](Cc2c[nH]cn2)NC(=O)[C@@H](NC(=O)[C@H](CCC(=O)O)NC(=O)CC(C)C)[C@@H](C)O)C(=O)N2CCC[C@H]2C(=O)N1)[C@@H](C)CC)C(=O)N[C@H](CCCCN)C(N)=O [Compd 3] (Isovaleryl-ETHCPCI[dK][β3hF]K([Ahx-Palmitoyl])[dK]-NH2; disulfide 4-6)
9,10 to 100,CCCCCCCCCCCCCCCC(=O)NCCCCCC(=O)NCCCC[C@H](NC(=O)C[C@H](Cc1ccccc1)NC(=O)[C@@H](CCCCN)NC(=O)[C@@H](NC(=O)[C@@H]1CSSC[C@H](NC(=O)[C@@H](NC(=O)[C@H](Cc2c[nH]cn2)NC(=O)[C@@H](NC(=O)[C@H](CCC(=O)O)NC(=O)CC(C)C)[C@@H](C)O)C(c2ccccc2)c2ccccc2)C(=O)N1)[C@@H](C)CC)C(=O)N[C@H](CCCCN)C(N)=O [Compd 4] (Isovaleryl-ETH[Dip]CCI[dK][β3hF]K([Ahx-Palmitoyl])[dK]-NH2; disulfide 5-6)

# Same assay, conditions: ferroportin-GFP internalization/degradation, HEK293 cells; Table 6E; read-out: FPN IC50
row,DC50 [nM],Structure (SMILES)
1,10 to 100,CC(C)CC(=O)N[C@@H](CCC(=O)O)C(=O)N[C@H](C(=O)N[C@@H](Cc1c[nH]cn1)C(=O)N[C@H](C(=O)N1CCC[C@H]1C(=O)N[C@H]1CSSC[C@@H](C(=O)N(C)[C@@H](CCCCNC(=O)COCCOCCNC(=O)COCCOCCNC(=O)[C@H](CN)NC(=O)CCCCCCCCCCCCCCCCC(=O)O)C(=O)N(C)[C@@H](Cc2ccccc2)C(=O)N(C)[C@@H](CCCCN)C(N)=O)N(C)C1=O)C(c1ccccc1)c1ccccc1)[C@@H](C)O [compound 277] (Isovaleryl-ETH[Dip]PC[NMeC][NMeK]([AEEA-AEEA-Dap-C18 diacid])[NMeF][NMeK]-NH2; disulfide 6-7)
2,10 to 100,CC(C)CC(=O)N[C@@H](CCC(=O)O)C(=O)N[C@H](C(=O)N[C@@H](Cc1c[nH]cn1)C(=O)N[C@H](C(=O)N1CCC[C@H]1C(=O)N[C@H]1CSSC[C@@H](C(=O)N(C)[C@@H](CCCCNC(=O)COCCOCCNC(=O)COCCOCCNC(=O)[C@H](CN)NC(=O)CCCCCCCCCCCCCCCCC(=O)O)C(=O)N[C@H](CC(=O)N[C@H](CCCCN)C(N)=O)Cc2ccccc2)N(C)C1=O)C(c1ccccc1)c1ccccc1)[C@@H](C)O [compound 278] (Isovaleryl-ETH[Dip]PC[NMeC][NMeK]([AEEA-AEEA-Dap-C18 diacid])[β3hF][dK]-NH2; disulfide 6-7)
3,10 to 100,CC(C)CC(=O)N[C@@H](CCC(=O)O)C(=O)N[C@H](C(=O)N[C@@H](Cc1c[nH]cn1)C(=O)N[C@H](C(=O)N1CCC[C@H]1C(=O)N[C@@H]1C(=O)N[C@H](C(=O)N[C@@H](CCCCNC(=O)COCCOCCNC(=O)COCCOCCNC(=O)[C@H](CN)NC(=O)CCCCCCCCCCCCCCCCC(=O)O)C(=O)N[C@H](CC(=O)N[C@H](CCCCN)C(N)=O)Cc2ccccc2)C(C)(C)SSC1(C)C)C(c1ccccc1)c1ccccc1)[C@@H](C)O [compound 274] (Isovaleryl-ETH[Dip]P[Pen][Pen]K([AEEA-AEEA-Dap-C18 diacid])[β3hF][dK]-NH2; disulfide 6-7)
4,100 to 500,CC(=O)NCCCC[C@H](C(N)=O)N(C)C(=O)C[C@H](Cc1ccccc1)NC(=O)[C@H](CCCCNC(=O)COCCOCCNC(=O)COCCOCCNC(=O)[C@H](CN)NC(=O)CCCCCCCCCCCCCCCCC(=O)O)N(C)C(=O)[C@@H]1CSSC[C@H](NC(=O)[C@@H]2CCCN2C(=O)[C@@H](NC(=O)[C@H](Cc2c[nH]cn2)NC(=O)[C@@H](NC(=O)[C@H](CCC(=O)O)NC(=O)CC(C)C)[C@@H](C)O)C(c2ccccc2)c2ccccc2)C(=O)N1 [compound 267] (Isovaleryl-ETH[Dip]PCC[NMeK]([AEEA-AEEA-Dap-C18 diacid])[β3hF][dNMeK](Ac)-NH2; disulfide 6-7)

# — US20250277012A1 (Protagonist Therapeutics, Inc., priority 2021, published 2025)
